The values below come from patent US20250339569A1, “CARBONIC ANHYDRASE IX LIGANDS” (priority 2021, published 2025).

The conditions of data set [1]: human, plasma.
The conditions of data set [2]: mouse, plasma, 24 h.
In data set [3] the target is T1, human carbonic anhydrase IX (hCAIX-Fc) (Homo sapiens, UniProt Q16790).
T1 construct: purchased SinoBliological (Sino Biological) 10107-H02H
The data set is described as follows: Surface plasmon resonance assay with hCAIX-Fc. The data set is classed as binding. To be noted: for t1/2 category (activity): SPR dissociation half-life, hCAIX-Fc. For orientation: Surface plasmon resonance follows binding to a sensor surface in real time, without labels.

A further data set concerns the target T2, CAIV (hCAIV-bio) (Homo sapiens, UniProt P22748).
T2 construct: purchased SinoBliological (Sino Biological) 10472-1H081H
The data set is described as follows: SPR selectivity assay with biotinylated CAIV. It counts as binding. To be noted: SPR, biotinylated CAIV; read-out: pKD category (affinity) CAIV (converted). As for the experimental part: (§1) In order to test selectivity of CAIX-binding peptides toward CAIV (SinoBliological, Cat #10472-1H081H), CAXII (SinoBliological, Cat #10617-H08H or CAXIV (SinoBliological, Cat #10458-H08H), SPR assays were performed analog to the assay described above but with a different target capture procedure. For immobilization, the carbonic anhydrases were biotinylated and capture on the SPR chip using the Biotin CAPture Kit (cytiva) according to the manufacturer instructions using HBSTE, 0.1% as Running Buffer.
(§2) Table 13 describes the protocol steps for biotinylated target capturing and assessment of the binding kinetics.

A further data set has as its target T3, CAXII (hCAXII-bio) (Homo sapiens, UniProt O43570).
T3 construct: purchased SinoBliological (Sino Biological) 10617-H08H
Description: SPR selectivity assay with biotinylated CAXII. It counts as binding. Particulars: SPR, biotinylated CAXII; read-out: pKD category (affinity) CAXII (converted). As for the experimental part: as §1, §2

Another data set concerns the target T4, CAXIV (hCAXIV-bio) (Homo sapiens, UniProt Q9ULX7).
T4 construct: purchased SinoBliological (Sino Biological) 10458-H08H
The data set is described as follows: SPR selectivity assay with biotinylated CAXIV. The data set is classed as binding. To be noted: SPR, biotinylated CAXIV; read-out: pKD category (affinity) CAXIV (converted). As for the experimental part: as §1, §2

Data set [4] can be described thus: Plasma stability assay, mouse plasma. To be noted: mouse plasma, 37°C, 24 h.
A short description of data set [5]: Plasma stability assay, human plasma. To be noted: 37°C.
Another data set deals with T5, mouse CAIX (Mus musculus, UniProt Q8VHB5).
T5 construct: host or cells: CHO-VGT / CHO cells
Description: Radioligand binding assay, 111In-labeled compounds, CHO-VGT cells with mouse CAIX. Particulars: 111In-labeled compound, Mouse CAIX, 8 h at 37°C; read-out: pKD category (activity) (converted). The procedure: (§3) In order to assess the affinity of ^111In-labeled compounds to CAIX of different species, a radioligand binding assay was established.
(§4) CHO-VGT cells were transfected with the human, dog, and mouse CAIX (InSCREENex GmbH) and cultured in Ham's F-12 medium (Sigma-Aldrich #N4888) supplemented with 10% fetal bovine serum (FCS), 2 mM L-glutamine, 100 U/mL Penicillin, and 0.1 mg/mL streptomycin. Cells were detached with Accutase (Biolegend #423201) and counted using a particle counter (CASY Model TT; Scharfe Systems, Germany). Cell concentrations were adjusted to 3×10^5 mL^−1, and 1.000 μL of the suspension per well were dispensed into flat-clear-bottom 24 well plates.
(§5) Approximately 24 hours after re-seeding, the medium was aspirated and the cells were washed once with 1000 μL assay medium (Ham's medium without additives). To determine total binding, 700 μL of assay medium and 100 μL of the radioligand dilutions were added to the wells in triplicates. To determine non-specific binding, 600 μL of binding medium, 100 μL of the radioligand dilutions and 100 μL of a blocking solution containing 8 μM non-labeled compound were added to the wells in triplicates. At the end of incubation time (8 h at 37° C.), cells were washed and subsequently harvested in 300 μL RIPA buffer (Thermo Scientific #89901) containing Protease Inhibitor Cocktail Set I (Calbiochem #539131). Radioactivity of the cell lysate of each well was counted using a gamma counter (1470 Wizard, PerkinElmer, USA). An aliquot of each radioligand dilution was included in the gamma counter measurements to allow for determination of their actual concentrations via their known specific activity.

Data set [6] addresses T6, CAIX-expressing human HT-29 colorectal cancer cells (Homo sapiens, UniProt Q16790).
T6 construct: CAIX-expressing human HT-29 colorectal cancer cells; host or cells: HT-29 human colorectal cancer cells
Description: FACS binding assay (IC50 determination, competition with tracer 3BP-2776 or 3BP-4149). Particulars: 4° C., 1 hour, read-out: pIC50 category (activity) (converted). In outline:
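HT-29 cells in FACS buffer (PBS, 1% FCS) at 500.000 cells/ml were exposed to compounds competing with a labelled tracer, with biotinylated compounds detected by 1 μg/mL APC-streptavidin for 30 min on ice. APC/Cy5 median fluorescence was read by flow cytometry and IC50 derived by 4PL fit.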
On the technique in general: A flow cytometer gives signals particle by particle.

For the next data set, the system named is dog CAIX. Description: Radioligand binding assay, 111In-labeled compounds, CHO-VGT cells with dog CAIX. Particulars: 111In-labeled compound, 8 h at 37°C. As for the experimental part: as §3, §4, §5
Data set [7] addresses T7, Recombinant soluble human NEP (Homo sapiens, UniProt P08473).
T7 construct: Recombinant soluble human NEP; purchased BioTechne, Wiesbaden, Germany
The data set is described as follows: Proteolytic stability assay against NEP. It counts as in vitro ADME. To be noted: 100 ng/mL NEP, 10 μM compound, 37°C. As for the experimental part: To assess the stability of compounds against NEP, the compounds were subjected to an in vitro assay based on the protocol described by Edelson et al. (Edelson et al., Pulmonary pharmacology & therapeutics, 2013, 26, 229-238).
Recombinant soluble human NEP (BioTechne, Wiesbaden, Germany) at a concentration of 100 ng/mL was mixed with the compound (10 μM) and a stable internal standard (10 μM) and incubated at 37° C. After several time points, samples were taken and analyzed with LC-MS.
The activity of NEP was examined using a commercially available chromogenic substrate of NEP.

Data set [8] in a line: in vitro. To be noted: human, plasma.
Data set [9] can be described thus: in vitro. To be noted: mouse, plasma.
The next data set concerns the target human CAIX (Homo sapiens, UniProt Q16790). Description: Radioligand binding assay, 111In-labeled compounds, CHO-VGT cells with human CAIX. Details: host or cells: CHO-VGT / CHO cells. To be noted: 111In-labeled compound, Human CAIX, 8 h at 37°C; read-out: pKD category (activity) (converted). As for the experimental part:
as §3, §4, §5

Like-named read-outs stand apart in the source and are kept apart here. Starred links: 1 amine or outer side, 2 acyl side, 3 side chain; linkers in the order of their positions; H or OH if unused. Positions of bridges follow the written chain, without caps; N, C: chain ends. Non-standard residues stand in square brackets, D forms with d. Residues, ends and D or L forms follow the SMILES beside them. *: point of attachment. Phe(3-NHCO(CH2)3SO2NH2) = N[C@@H](Cc1cccc(NC(=O)CCCS(N)(=O)=O)c1)C(=O)O; DOTA = O=C(O)CN1CCN(CC(=O)O)CCN(CC(=O)*)CCN(CC(=O)O)CC1; mXylylene = c1cc(C[*:1])cc(C[*:2])c1; X2 = O=C(CN1CCC(N[*:1])CC1)[*:2]; Dap = NC[C@H](N)C(=O)O

T4 sequence (Q9ULX7 16-337): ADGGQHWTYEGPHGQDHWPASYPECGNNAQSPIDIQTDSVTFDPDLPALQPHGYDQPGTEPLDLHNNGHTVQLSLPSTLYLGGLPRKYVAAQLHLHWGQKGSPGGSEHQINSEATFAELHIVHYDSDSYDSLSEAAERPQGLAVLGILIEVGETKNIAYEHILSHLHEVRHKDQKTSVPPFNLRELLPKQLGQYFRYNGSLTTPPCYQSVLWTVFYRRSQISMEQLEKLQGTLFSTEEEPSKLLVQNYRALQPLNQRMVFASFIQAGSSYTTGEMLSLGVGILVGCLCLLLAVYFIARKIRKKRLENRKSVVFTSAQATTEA
T2 sequence (P22748 19-284): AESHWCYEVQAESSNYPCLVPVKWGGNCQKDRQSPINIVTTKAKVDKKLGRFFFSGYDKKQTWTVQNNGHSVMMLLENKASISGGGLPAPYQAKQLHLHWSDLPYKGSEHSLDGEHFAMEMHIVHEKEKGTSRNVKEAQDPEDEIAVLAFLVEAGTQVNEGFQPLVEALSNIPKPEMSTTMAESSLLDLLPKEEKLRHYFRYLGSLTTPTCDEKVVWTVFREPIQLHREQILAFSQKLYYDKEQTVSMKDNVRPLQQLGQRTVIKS
T3 sequence (O43570 25-354): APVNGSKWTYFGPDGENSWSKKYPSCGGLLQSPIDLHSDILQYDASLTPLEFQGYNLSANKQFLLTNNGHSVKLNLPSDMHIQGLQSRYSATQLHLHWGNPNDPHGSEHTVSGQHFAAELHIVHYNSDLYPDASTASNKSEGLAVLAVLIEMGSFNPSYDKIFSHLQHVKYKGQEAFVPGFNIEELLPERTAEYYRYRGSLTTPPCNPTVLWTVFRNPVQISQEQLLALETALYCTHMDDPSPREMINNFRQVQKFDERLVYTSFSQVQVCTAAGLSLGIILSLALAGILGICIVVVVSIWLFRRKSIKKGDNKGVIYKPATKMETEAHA
T5 sequence (Q8VHB5 32-437): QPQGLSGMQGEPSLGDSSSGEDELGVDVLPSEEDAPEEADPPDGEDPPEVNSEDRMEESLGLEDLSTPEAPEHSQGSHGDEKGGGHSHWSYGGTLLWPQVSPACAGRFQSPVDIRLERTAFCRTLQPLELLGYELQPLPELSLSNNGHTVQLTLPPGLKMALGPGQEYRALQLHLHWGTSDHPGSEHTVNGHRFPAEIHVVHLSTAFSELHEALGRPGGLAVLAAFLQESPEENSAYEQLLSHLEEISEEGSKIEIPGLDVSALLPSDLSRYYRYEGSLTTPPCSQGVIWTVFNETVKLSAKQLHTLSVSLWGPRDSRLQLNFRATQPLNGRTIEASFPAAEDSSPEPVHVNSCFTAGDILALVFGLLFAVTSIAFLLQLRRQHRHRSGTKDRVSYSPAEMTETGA
T7 sequence (P08473 52-750 limits assumed): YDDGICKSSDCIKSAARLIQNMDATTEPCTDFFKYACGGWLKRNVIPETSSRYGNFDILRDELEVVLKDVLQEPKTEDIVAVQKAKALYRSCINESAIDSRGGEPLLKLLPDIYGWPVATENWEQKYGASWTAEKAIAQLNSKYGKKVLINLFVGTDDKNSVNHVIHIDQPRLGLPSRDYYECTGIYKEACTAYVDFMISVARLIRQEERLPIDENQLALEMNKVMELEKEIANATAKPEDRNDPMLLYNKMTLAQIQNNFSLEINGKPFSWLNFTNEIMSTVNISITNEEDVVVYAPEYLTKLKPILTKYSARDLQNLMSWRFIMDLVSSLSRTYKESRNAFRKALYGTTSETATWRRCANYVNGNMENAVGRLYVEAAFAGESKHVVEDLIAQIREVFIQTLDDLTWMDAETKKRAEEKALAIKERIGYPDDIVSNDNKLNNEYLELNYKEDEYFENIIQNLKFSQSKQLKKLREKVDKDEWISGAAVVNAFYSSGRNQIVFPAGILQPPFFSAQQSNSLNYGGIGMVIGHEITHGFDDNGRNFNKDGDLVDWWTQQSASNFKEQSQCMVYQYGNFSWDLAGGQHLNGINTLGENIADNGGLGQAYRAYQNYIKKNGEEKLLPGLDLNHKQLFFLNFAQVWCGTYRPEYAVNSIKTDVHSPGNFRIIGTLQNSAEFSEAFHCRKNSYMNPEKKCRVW

Consider `CC(C)C[C@@H]1NC(=O)[C@H](Cc2ccc(NC(=O)CCS(N)(=O)=O)cc2)NC(=O)[C@H](CC(=O)O)NC(=O)[C@H]2CCCN2C(=O)[C@H](CCC(=O)O)NC(=O)[C@@H](NC(=O)[C@H](CCC(N)=O)NC(=O)CN2CCN(CC(=O)O)CCN(CC(=O)O)CCN(CC(=O)O)CC2)CSCc2cccc(c2)CSC[C@@H](C(N)=O)NC(=O)[C@H](CO)NC(=O)[C@H](Cc2c[nH]c3ccccc23)NC(=O)[C@H]([C@@H](C)O)NC1=O` (natLu complex, metal not drawn) [3BP-4581], for which the “% intact compound remaining after 24 h incubation” value in data set [1] is reported as above 95%. Moreover, in [2], the “% intact compound remaining (incubation time)” value was above 95%.
With `CC(C)C[C@@H]1NC(=O)[C@H](Cc2c[nH]c3ccccc23)NC(=O)[C@H](CC(=O)O)NC(=O)[C@H]2CCCN2C(=O)[C@H](CCC(=O)O)NC(=O)[C@@H](NC(=O)[C@H](Cc2ccc(O)cc2)NC(=O)[C@@H](NC(=O)CN2CCC(NC(=O)CN3CCN(CC(=O)O)CCN(CC(=O)O)CCN(CC(=O)O)CC3)CC2)C(C)C)CSCc2cccc(c2)CSC[C@@H](C(N)=O)NC(=O)[C@H](CO)NC(=O)[C@H](Cc2c[nH]c3ccccc23)NC(=O)[C@H]([C@@H](C)O)NC1=O` [3BP-3583, DOTA-APAc-Val-Tyr-[Cys(3MeBn)-Glu-pro-Asp-Trp-Leu-Thr-Trp-Ser-Cys]-NH2] ({DOTA}-[X2]VYCE[dP]DWLTWSC-NH2; linker 4-13 via mXylylene), the “t1/2 category (activity)” value in data set [3] (25° C.) was “A (t1/2>15.0 minutes)”. For the same compound, the Kd is above 1 µM at CAIV (hCAIV-bio), above 1 µM on CAXII (hCAXII-bio), above 1 µM at CAXIV (hCAXIV-bio) and 0.1 to 0.794 µM at mouse CAIX. In addition, the “% intact compound remaining (incubation time)” value in data set [4] was found to be 79%. Further, the “% intact compound remaining after 24 h incubation” value in [5] is recorded as 71%; in data set [7], above 95%. Besides, in [6] (FACS competition on HT-29 cells, Tracer ID 3BP-2776 (10 nM, biotin-labeled)), the IC50 was below 0.01 µM. The “pKD category (activity)” value in the data set on dog CAIX is recorded as “A (pKD values >8.0)”.
By fraction remaining is commonly meant what is left of the initial amount, in per cent. As for `CC(C)C[C@@H]1NC(=O)[C@H](Cc2cccc(NC(=O)CCCS(N)(=O)=O)c2)NC(=O)[C@H](CC(=O)O)NC(=O)[C@H]2CCCN2C(=O)[C@H](CCC(=O)O)NC(=O)[C@@H]2CSCc3cccc(c3)CSC[C@@H](C(N)=O)NC(=O)[C@H](CNC(=O)CC[C@H](NC(=O)CN3CCN(CC(=O)O)CCN(CC(=O)O)CCN(CC(=O)O)CC3)C(=O)N2)NC(=O)[C@H](Cc2c[nH]c3ccccc23)NC(=O)[C@H]([C@@H](C)O)NC1=O` [3BP-4503, DOTA-{Glu-[Cys(3MeBn)-Glu-pro-Asp-Af3(Cpsu)-Leu-Thr-Trp-Dap}-Cys]-NH2] ({DOTA}-ECE[dP]D[Phe(3-NHCO(CH2)3SO2NH2)]LTW[Dap]C-NH2; lactam 1-10; linker 2-11 via mXylylene), the “t1/2 category (activity)” value in data set [3] (25° C.) is reported as “A (t1/2>15.0 minutes)”. Moreover, the “pKD category (affinity) CAIX” value in data set [3] (SPR, hCAIX) is “A (pKD values >8.0)”. For the same compound, the Kd is below 0.01 µM in [3] (SPR, hCAIX-Fc captured, 25° C., read-out: pKD category (activity) (converted)); above 1 µM at CAIV (hCAIV-bio); above 1 µM at CAXII (hCAXII-bio); above 1 µM on CAXIV (hCAXIV-bio); below 0.01 µM on mouse CAIX; below 0.01 µM on human CAIX. Also, the fraction remaining at 24 h, […] in the data set “in vitro [8]” and in “in vitro [9]” was above 95% in each case. The IC50 in [6] (FACS binding assay, HT-29 cells, competition with tracer 3BP-2776 (10 nM, biotin-labeled)) was below 0.01 µM. Also, the “pKD category (activity)” value in the data set on dog CAIX is given as “A (pKD values >8.0)”.
